We go through eight molecules from patent US9738660B2, “Selective inhibitors for protein kinases and pharmaceutical composition and use thereof” (National Chiao Tung University, priority 2014, dated 2017).

Holding throughout (experiment): Kinase Profiler, residual kinase activity
Holding throughout (format): biochemical

One assay has as its target T1, STK16 (Homo sapiens, UniProt O75716).
T1 construct: purchased Research Biology Corp. (http://www.reactionbiology.com)
The conditions noted are these: read-out: percentage of the remaining kinase activity. The text has this: (§1) Kinase Profiler services provided by […]. (http://www.reactionbiology.com) were used to analyze the data of the 9 type-S protein kinase inhibitors against the 40 types of protein kinases.

In the next assay the target is PAK4 (Homo sapiens, UniProt O96013). Particulars: read-out: percentage of the remaining kinase activity.
Source text: as §1

Another assay deals with T2, MERTK (Homo sapiens, UniProt Q12866).
T2 sequence (Q12866 21-999): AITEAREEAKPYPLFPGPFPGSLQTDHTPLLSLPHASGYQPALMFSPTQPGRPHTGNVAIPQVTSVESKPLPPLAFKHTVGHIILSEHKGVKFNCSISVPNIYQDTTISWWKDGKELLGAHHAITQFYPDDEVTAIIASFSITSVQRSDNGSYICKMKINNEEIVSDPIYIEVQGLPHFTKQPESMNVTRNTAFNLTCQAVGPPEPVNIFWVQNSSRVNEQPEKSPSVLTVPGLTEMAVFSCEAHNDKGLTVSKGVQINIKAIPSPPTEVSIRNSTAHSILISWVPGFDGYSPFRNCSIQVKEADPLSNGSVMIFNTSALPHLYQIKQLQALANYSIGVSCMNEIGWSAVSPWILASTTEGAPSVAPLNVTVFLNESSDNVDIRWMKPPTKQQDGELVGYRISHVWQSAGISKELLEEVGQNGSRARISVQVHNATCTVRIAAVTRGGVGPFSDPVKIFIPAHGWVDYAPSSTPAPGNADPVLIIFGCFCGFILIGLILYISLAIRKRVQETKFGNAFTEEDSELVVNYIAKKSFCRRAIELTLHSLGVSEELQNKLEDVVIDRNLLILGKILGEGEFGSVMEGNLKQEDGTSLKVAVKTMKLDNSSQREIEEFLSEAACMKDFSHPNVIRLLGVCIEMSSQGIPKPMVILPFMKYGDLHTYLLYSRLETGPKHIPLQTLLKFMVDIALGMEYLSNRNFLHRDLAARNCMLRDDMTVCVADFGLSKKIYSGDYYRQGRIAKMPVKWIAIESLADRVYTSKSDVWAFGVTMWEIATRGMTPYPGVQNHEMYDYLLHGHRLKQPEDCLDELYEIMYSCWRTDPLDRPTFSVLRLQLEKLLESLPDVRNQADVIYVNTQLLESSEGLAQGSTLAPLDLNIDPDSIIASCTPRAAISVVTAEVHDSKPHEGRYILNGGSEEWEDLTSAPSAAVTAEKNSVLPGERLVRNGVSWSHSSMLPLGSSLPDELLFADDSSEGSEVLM
The conditions noted are these: read-out: percentage of the remaining kinase activity.
Source text: as §1

The next assay concerns the target T3, STK4 (Homo sapiens, UniProt Q13043).
T3 construct: purchased Research Biology Corp. (http://www.reactionbiology.com)
T3 sequence (Q13043 1-487): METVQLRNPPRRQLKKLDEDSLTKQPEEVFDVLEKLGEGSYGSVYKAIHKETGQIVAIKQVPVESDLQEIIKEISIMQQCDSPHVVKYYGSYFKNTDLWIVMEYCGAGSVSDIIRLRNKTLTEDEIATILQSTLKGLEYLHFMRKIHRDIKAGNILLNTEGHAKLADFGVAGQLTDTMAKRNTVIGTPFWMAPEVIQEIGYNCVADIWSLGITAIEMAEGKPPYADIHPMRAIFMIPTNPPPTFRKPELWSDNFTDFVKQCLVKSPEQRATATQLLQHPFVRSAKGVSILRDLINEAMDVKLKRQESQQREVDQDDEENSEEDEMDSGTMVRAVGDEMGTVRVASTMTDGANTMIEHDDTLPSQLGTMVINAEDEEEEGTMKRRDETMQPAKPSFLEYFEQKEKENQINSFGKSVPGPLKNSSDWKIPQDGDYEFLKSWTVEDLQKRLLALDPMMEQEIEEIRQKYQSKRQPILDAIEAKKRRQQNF
Particulars: read-out: percentage of the remaining kinase activity.
Source text: as §1

A further assay deals with T4, FGFR2 (Homo sapiens, UniProt P21802).
T4 construct: purchased Research Biology Corp. (http://www.reactionbiology.com)
Particulars: for remaining activity at 0.5 µM: read-out: percentage of the remaining kinase activity.
Source text: as §1

The next assay has as its target LIMK1 (Homo sapiens, UniProt P53667). The conditions noted are these: read-out: percentage of the remaining kinase activity.
Source text: as §1

The next assay deals with T5, MAP2K1 (Homo sapiens, UniProt Q02750).
T5 construct: purchased Research Biology Corp. (http://www.reactionbiology.com)
Particulars: read-out: percentage of the remaining kinase activity.
Source text: as §1

For a further assay, the target named is JAK2 (Homo sapiens, UniProt O60674). The conditions noted are these: read-out: percentage of the remaining kinase activity.
Source text: as §1

A further assay addresses T6, PDPK1 (Homo sapiens, UniProt O15530).
T6 sequence (O15530 1-556): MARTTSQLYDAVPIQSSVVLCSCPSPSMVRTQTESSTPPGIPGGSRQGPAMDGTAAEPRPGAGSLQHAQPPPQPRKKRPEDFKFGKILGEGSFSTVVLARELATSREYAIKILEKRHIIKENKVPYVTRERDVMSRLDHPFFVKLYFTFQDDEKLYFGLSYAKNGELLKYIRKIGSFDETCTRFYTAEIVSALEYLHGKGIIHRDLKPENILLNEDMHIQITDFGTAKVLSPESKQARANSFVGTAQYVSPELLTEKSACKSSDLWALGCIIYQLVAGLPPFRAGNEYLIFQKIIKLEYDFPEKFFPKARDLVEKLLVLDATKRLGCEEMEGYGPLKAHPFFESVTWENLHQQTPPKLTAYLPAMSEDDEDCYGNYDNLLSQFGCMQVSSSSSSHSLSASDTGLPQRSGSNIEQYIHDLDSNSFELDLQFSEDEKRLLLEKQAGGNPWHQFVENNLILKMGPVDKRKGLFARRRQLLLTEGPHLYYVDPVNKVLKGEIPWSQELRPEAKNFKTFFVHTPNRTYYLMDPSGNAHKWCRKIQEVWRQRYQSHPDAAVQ
Particulars: read-out: percentage of the remaining kinase activity.
Source text: as §1

A further assay addresses KDR (Homo sapiens, UniProt P35968). Particulars: read-out: percentage of the remaining kinase activity.
Source text: as §1

For the next assay, the target named is CLK1 (Homo sapiens, UniProt P49759). The conditions noted are these: read-out: percentage of the remaining kinase activity.
Source text: as §1

Read-outs that look alike come from different tables or passages of the source.

Sequence of LIMK1 (P53667 whole entry): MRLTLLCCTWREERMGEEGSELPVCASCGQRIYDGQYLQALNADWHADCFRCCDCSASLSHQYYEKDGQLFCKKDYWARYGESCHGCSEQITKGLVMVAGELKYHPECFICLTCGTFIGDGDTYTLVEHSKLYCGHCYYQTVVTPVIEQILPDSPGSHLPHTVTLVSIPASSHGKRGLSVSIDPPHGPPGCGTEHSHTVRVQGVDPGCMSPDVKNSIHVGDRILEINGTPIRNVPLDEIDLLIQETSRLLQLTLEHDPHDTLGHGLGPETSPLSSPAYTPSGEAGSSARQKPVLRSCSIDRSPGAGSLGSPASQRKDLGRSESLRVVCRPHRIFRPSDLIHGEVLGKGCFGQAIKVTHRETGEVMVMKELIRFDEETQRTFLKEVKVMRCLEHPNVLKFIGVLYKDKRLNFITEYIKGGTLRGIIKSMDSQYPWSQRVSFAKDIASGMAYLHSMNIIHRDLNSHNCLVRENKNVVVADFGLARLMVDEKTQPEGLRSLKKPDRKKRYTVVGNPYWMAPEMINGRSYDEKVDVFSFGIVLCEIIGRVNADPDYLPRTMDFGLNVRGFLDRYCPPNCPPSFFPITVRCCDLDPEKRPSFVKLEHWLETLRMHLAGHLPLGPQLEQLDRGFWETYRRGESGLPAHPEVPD
T1 sequence (O75716 whole entry): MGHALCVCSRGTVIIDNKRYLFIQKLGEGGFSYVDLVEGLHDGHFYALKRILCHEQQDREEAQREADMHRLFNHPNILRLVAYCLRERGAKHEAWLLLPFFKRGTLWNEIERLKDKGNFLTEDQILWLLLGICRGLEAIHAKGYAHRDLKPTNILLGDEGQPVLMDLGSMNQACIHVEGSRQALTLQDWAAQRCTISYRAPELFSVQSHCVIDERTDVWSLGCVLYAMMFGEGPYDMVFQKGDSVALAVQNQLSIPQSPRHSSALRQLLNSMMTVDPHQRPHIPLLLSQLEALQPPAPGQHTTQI
Sequence of KDR (P35968 20-1356): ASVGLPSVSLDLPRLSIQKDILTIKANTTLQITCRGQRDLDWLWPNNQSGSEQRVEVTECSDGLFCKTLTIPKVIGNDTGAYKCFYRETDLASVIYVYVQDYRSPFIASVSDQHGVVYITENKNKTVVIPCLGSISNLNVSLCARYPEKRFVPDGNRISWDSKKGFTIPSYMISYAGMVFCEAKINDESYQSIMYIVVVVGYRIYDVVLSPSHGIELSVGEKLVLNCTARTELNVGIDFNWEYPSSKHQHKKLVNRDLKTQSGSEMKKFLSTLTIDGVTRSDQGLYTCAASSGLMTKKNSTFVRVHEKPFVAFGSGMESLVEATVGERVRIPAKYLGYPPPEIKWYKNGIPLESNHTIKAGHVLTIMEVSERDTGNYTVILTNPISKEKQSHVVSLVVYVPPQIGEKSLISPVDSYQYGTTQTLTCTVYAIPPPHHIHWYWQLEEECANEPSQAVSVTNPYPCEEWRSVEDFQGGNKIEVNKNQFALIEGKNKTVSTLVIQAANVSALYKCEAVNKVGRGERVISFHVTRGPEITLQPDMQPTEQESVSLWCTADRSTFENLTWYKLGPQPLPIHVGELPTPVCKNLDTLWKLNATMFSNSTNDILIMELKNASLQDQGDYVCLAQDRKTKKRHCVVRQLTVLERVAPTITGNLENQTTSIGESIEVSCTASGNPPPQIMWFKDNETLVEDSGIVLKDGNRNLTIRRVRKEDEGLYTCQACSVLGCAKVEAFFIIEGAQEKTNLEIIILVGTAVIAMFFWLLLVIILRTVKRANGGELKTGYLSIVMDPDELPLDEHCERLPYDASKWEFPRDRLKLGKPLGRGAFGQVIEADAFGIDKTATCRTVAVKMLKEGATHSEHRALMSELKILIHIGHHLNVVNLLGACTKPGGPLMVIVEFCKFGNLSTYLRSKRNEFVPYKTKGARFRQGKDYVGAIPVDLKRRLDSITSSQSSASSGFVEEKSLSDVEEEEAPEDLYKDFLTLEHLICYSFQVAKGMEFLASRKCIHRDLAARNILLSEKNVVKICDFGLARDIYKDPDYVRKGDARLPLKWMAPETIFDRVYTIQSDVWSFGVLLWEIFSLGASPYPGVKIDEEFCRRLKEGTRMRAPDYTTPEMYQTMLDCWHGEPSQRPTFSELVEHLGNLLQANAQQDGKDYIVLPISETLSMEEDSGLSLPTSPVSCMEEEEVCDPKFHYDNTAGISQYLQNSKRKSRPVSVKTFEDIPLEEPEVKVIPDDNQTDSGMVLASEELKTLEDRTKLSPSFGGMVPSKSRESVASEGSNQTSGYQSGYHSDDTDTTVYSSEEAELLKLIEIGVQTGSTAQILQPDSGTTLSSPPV
Sequence of JAK2 (O60674 whole entry): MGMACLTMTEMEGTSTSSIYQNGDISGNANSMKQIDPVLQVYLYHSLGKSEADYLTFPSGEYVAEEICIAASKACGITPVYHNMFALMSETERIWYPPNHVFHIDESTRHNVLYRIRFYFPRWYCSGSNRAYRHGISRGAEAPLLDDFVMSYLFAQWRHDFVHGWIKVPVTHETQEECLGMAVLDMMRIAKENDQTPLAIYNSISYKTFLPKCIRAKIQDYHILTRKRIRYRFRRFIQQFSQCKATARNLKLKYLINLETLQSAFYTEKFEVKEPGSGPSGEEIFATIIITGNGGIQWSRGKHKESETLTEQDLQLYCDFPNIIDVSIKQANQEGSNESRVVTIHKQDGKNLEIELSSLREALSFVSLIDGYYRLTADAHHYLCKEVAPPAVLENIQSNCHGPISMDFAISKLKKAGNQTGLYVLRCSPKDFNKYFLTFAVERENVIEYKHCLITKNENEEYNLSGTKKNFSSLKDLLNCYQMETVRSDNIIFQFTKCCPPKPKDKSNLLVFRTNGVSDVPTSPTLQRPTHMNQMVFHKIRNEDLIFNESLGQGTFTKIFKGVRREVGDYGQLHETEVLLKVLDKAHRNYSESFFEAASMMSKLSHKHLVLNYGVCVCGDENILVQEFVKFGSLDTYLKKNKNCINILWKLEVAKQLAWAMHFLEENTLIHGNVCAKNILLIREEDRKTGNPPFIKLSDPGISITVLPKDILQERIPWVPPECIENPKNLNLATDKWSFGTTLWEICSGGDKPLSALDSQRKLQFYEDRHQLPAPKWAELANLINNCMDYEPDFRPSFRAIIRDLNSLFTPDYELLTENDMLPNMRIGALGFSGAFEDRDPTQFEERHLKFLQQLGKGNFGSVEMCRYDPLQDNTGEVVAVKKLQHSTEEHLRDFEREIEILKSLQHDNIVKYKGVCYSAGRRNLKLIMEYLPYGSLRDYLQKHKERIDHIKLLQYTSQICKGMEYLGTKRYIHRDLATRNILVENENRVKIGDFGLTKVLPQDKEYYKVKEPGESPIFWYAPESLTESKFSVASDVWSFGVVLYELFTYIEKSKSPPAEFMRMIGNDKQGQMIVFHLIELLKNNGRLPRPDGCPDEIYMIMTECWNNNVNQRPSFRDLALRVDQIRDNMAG
T5 sequence (Q02750 whole entry): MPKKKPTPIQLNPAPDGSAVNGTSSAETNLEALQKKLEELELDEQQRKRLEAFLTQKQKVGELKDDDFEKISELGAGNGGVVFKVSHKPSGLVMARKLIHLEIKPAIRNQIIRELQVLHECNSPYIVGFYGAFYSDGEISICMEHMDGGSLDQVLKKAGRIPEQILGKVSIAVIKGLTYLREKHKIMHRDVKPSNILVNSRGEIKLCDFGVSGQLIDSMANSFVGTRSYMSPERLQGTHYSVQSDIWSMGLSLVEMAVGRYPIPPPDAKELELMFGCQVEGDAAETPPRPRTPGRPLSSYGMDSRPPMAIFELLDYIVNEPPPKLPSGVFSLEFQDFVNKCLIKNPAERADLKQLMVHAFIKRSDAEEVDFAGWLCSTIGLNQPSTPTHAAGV
Sequence of CLK1 (P49759 whole entry): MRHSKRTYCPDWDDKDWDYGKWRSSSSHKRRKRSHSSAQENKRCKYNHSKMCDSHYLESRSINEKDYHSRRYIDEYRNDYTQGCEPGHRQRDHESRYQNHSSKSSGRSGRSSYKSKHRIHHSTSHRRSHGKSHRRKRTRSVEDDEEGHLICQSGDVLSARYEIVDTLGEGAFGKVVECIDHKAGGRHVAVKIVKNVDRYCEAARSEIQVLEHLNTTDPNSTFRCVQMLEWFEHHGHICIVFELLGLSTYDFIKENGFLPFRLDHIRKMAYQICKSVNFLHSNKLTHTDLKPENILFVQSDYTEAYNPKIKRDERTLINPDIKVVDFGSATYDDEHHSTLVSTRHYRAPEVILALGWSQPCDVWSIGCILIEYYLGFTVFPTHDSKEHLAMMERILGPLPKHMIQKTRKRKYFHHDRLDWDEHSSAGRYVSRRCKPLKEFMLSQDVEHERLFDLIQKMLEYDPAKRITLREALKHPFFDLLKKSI
Sequence of PAK4 (O96013 whole entry): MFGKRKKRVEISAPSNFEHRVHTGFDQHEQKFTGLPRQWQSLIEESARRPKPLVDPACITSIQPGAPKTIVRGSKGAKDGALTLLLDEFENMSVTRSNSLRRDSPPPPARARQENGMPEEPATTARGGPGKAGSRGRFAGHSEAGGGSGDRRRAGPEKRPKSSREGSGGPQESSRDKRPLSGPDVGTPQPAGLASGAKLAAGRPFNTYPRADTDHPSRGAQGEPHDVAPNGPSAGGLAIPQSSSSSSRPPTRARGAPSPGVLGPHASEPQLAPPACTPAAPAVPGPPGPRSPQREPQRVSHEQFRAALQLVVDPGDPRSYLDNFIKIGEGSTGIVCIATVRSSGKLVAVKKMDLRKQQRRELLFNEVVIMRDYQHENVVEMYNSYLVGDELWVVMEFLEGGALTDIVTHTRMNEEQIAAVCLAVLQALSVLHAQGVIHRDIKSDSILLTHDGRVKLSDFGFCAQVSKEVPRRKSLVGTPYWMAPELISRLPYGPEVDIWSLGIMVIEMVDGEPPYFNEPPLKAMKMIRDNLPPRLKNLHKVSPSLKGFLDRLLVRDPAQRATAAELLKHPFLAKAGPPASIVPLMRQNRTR

In the case of `COC1C(N(C)C(=O)C(N)Cc2c[nH]cn2)CC2OC1(C)n1c3ccccc3c3c4c(c5c6ccccc6n2c5c31)C(=O)NC4` (stereo not shown) [Compound 1], the remaining activity at 0.5 µM on STK16 (STK16, inhibitor at 500 nM) turned out to be 59%; on PAK4 (PAK4, inhibitor at 500 nM) it was 40.2%; on MERTK (MERTK, inhibitor at 500 nM) it was 26.7%; at STK4 (STK4, inhibitor at 500 nM), 1.8%; at FGFR2 (FGFR2, inhibitor at 500 nM), 9.8%; on LIMK1 (LIMK1, inhibitor at 500 nM), 18.8%. For the same molecule, the remaining activity at 0.5 µM on MAP2K1 (MAP2K1, inhibitor at 500 nM) was 79.8%; on JAK2 (JAK2, inhibitor at 500 nM), 4.4%; at PDPK1 (PDPK1, inhibitor at 500 nM), 0.5%; at KDR (KDR, inhibitor at 500 nM), 6.5%; on CLK1 (CLK1, inhibitor at 500 nM) it was 15.9%.
`COC1C(N(C)C(=O)C(N)Cc2cn(C(=O)OC(C)(C)C)c3ccccc23)CC2OC1(C)n1c3ccccc3c3c4c(c5c6ccccc6n2c5c31)C(=O)NC4` (stereo not shown) [Compound 2]: the remaining activity at 0.5 µM on STK16 (STK16, inhibitor at 500 nM) came out at 105%; on PAK4 (PAK4, inhibitor at 500 nM), 110%; at MERTK (MERTK, inhibitor at 500 nM), 96.8%; on STK4 (STK4, inhibitor at 500 nM) it was 72.8%; on FGFR2 (FGFR2, inhibitor at 500 nM), 88.4%; at LIMK1 (LIMK1, inhibitor at 500 nM), 103%. For the same molecule, the remaining activity at 0.5 µM at MAP2K1 (MAP2K1, inhibitor at 500 nM) was 105%; on JAK2 (JAK2, inhibitor at 500 nM) it was 70%; at PDPK1 (PDPK1, inhibitor at 500 nM), 81%; at KDR (KDR, inhibitor at 500 nM) it was 102%; on CLK1 (CLK1, inhibitor at 500 nM), 107%.
With `COC1C(N(C)C(=O)C(N)Cc2ccc(OC(C)(C)C)cc2)CC2OC1(C)n1c3ccccc3c3c4c(c5c6ccccc6n2c5c31)C(=O)NC4` (stereo not shown) [Compound 4], the remaining activity at 0.5 µM at STK16 (STK16, inhibitor at 500 nM) came out at 99.8%; at PAK4 (PAK4, inhibitor at 500 nM), 95.2%; at MERTK (MERTK, inhibitor at 500 nM), 88.1%; at STK4 (STK4, inhibitor at 500 nM), 12%; on FGFR2 (FGFR2, inhibitor at 500 nM), 43.2%; at LIMK1 (LIMK1, inhibitor at 500 nM) it was 66.9%. Besides, the remaining activity at 0.5 µM at MAP2K1 (MAP2K1, inhibitor at 500 nM) worked out at 110%; on JAK2 (JAK2, inhibitor at 500 nM) it was 36.4%; at PDPK1 (PDPK1, inhibitor at 500 nM), 13.3%; on KDR (KDR, inhibitor at 500 nM), 50.8%; on CLK1 (CLK1, inhibitor at 500 nM), 98.6%. Besides, at FGFR2 (in words), the “inhibitory effect on FGFR2” value is “had an inhibitory effect on FGFR2”.
For the molecule `COC1C(N(C)C(=O)C(N)Cc2ccc(O)cc2)CC2OC1(C)n1c3ccccc3c3c4c(c5c6ccccc6n2c5c31)C(=O)NC4` (stereo not shown) [Compound 5], the remaining activity at 0.5 µM at STK16 (STK16, inhibitor at 500 nM) stood at 86.7%; on PAK4 (PAK4, inhibitor at 500 nM), 53.3%; at MERTK (MERTK, inhibitor at 500 nM) it was 69.2%; on STK4 (STK4, inhibitor at 500 nM) it was 5.5%; at FGFR2 (FGFR2, inhibitor at 500 nM) it was 21.7%; at LIMK1 (LIMK1, inhibitor at 500 nM), 46.9%. For the same molecule, the remaining activity at 0.5 µM at MAP2K1 (MAP2K1, inhibitor at 500 nM) came out at 103%; at JAK2 (JAK2, inhibitor at 500 nM) it was 19.4%; at PDPK1 (PDPK1, inhibitor at 500 nM), 2%; at KDR (KDR, inhibitor at 500 nM), 16.3%; at CLK1 (CLK1, inhibitor at 500 nM), 29.6%.
Regarding `COC1C(N(C)C(=O)C(N)CCC(=O)OC(C)(C)C)CC2OC1(C)n1c3ccccc3c3c4c(c5c6ccccc6n2c5c31)C(=O)NC4` (stereo not shown) [Compound 6], the remaining activity at 0.5 µM on STK16 (STK16, inhibitor at 500 nM) was 94%; at PAK4 (PAK4, inhibitor at 500 nM), 80.8%; on MERTK (MERTK, inhibitor at 500 nM) it was 85.2%; on STK4 (STK4, inhibitor at 500 nM), 6%; on FGFR2 (FGFR2, inhibitor at 500 nM), 26.5%; on LIMK1 (LIMK1, inhibitor at 500 nM), 39.5%. For the same molecule, the remaining activity at 0.5 µM stood at 101% on MAP2K1 (MAP2K1, inhibitor at 500 nM); 39.6% on JAK2 (JAK2, inhibitor at 500 nM); 3.4% on PDPK1 (PDPK1, inhibitor at 500 nM); 42.4% on KDR (KDR, inhibitor at 500 nM); 86.6% at CLK1 (CLK1, inhibitor at 500 nM).
On to `COC1C(N(C)C(=O)C(N)CCC(=O)O)CC2OC1(C)n1c3ccccc3c3c4c(c5c6ccccc6n2c5c31)C(=O)NC4` (stereo not shown) [Compound 7], for which the remaining activity at 0.5 µM turned out to be 51.6% on STK16 (STK16, inhibitor at 500 nM); 38.4% at PAK4 (PAK4, inhibitor at 500 nM); 40% at MERTK (MERTK, inhibitor at 500 nM); 1.9% on STK4 (STK4, inhibitor at 500 nM); 9.2% at FGFR2 (FGFR2, inhibitor at 500 nM); 1.4% on LIMK1 (LIMK1, inhibitor at 500 nM). Also, the remaining activity at 0.5 µM at MAP2K1 (MAP2K1, inhibitor at 500 nM) stood at 74.1%; on JAK2 (JAK2, inhibitor at 500 nM), 1.5%; at PDPK1 (PDPK1, inhibitor at 500 nM) it was 0.5%; on KDR (KDR, inhibitor at 500 nM), 5.4%; on CLK1 (CLK1, inhibitor at 500 nM), 32.3%.
On to `COC1C(N(C)CCOc2cccc([N+](=O)[O-])c2)CC2OC1(C)n1c3ccccc3c3c4c(c5c6ccccc6n2c5c31)C(=O)NC4` (stereo not shown) [Compound 8], for which the remaining activity at 0.5 µM at STK16 came to 94%; at PAK4, 99.9%; at MERTK it was 63.1%; on STK4, 2.7%; at FGFR2, 31.4%; on LIMK1, 49.9%. Moreover, the remaining activity at 0.5 µM at MAP2K1 came to 72%; at JAK2, 5.2%; on PDPK1, 4.7%; at KDR it was 43.3%; at CLK1, 74.8%.
`CN[C@@H]1C[C@H]2O[C@@](C)([C@@H]1OC)n1c3ccccc3c3c4c(c5c6ccccc6n2c5c31)C(=O)NC4` [STU, staurosporine, reference compound]: the remaining activity at 0.5 µM at STK16 was 52.5%; at MERTK it was 1.1%; on STK4, 5.5%; at LIMK1, -0.6%; at MAP2K1 (MAP2K1, inhibitor at 500 nM), 11.5%; at JAK2 (JAK2, inhibitor at 500 nM), 0.8%. Moreover, the remaining activity at 0.5 µM at PDPK1 (PDPK1, inhibitor at 500 nM) is -1.8%.
